Data taken from publication PMC8909834, “An Orally Bioavailable and Highly Efficacious Inhibitor of CDK9/FLT3 for the Treatment of Acute Myeloid Leukemia” (Cancers, 2022).

Columns and labels:
Experiment in all cases: Kinase Hotspot radiolabel assay
Format in all cases: biochemical
Conditions in all cases: read-out: % Residual Activity
[1] = target: T1, LATS1 (Homo sapiens, UniProt O95835)
T1 construct: purchased Reaction Biology Corporation (Kinase HotSpot)
Method in brief: (§1)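 Radiometric Hotspot screen: single test concentration of 1 µM, 369 kinases. Ki follow-up was applied only where inhibition exceeded 90%.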

[2] = target: T2, SBK1 (Homo sapiens, UniProt Q52WX2)
T2 construct: purchased Reaction Biology Corporation (Kinase HotSpot)
Method in brief: as §1

[3] = target: T3, EPHA7 (Homo sapiens, UniProt Q15375)
T3 construct: purchased Reaction Biology Corporation (Kinase HotSpot)
Method in brief: as §1

[4] = target: T4, ERN1/IRE1 (Homo sapiens, UniProt O75460)
T4 construct: purchased Reaction Biology Corporation (Kinase HotSpot)
Method in brief: as §1

[5] = target: T5, PKG2/PRKG2 (Homo sapiens, UniProt Q13237)
T5 construct: purchased Reaction Biology Corporation (Kinase HotSpot)
Method in brief: as §1

[6] = target: T6, HIPK1 (Homo sapiens, UniProt Q86Z02)
T6 construct: purchased Reaction Biology Corporation (Kinase HotSpot)
Method in brief: as §1

[7] = target: T7, ZAK/MLTK (Homo sapiens, UniProt Q9NYL2)
T7 construct: purchased Reaction Biology Corporation (Kinase HotSpot)
T7 sequence (Q9NYL2 whole entry): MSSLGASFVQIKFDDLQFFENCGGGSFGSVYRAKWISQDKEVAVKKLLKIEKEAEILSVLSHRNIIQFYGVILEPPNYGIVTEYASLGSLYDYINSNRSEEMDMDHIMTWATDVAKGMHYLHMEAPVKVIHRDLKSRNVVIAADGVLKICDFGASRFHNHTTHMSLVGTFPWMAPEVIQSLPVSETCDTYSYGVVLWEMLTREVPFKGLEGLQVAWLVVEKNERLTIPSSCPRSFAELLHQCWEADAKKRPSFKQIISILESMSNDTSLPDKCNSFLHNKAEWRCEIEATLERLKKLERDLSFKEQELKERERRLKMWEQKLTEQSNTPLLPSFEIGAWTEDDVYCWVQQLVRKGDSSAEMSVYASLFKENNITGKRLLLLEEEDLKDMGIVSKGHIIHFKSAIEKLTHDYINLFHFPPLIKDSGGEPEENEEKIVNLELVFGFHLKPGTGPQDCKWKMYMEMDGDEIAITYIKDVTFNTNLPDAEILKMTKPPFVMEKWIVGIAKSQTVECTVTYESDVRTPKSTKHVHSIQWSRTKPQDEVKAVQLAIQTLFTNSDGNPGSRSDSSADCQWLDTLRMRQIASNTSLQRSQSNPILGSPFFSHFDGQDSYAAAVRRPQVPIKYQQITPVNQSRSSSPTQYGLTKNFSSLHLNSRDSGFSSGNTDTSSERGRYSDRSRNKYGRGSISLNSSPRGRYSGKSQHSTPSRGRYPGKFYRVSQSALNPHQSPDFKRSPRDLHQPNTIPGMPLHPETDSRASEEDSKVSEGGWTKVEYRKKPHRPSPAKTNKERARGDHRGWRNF
Method in brief: as §1

[8] = target: T8, FAK/PTK2 (Homo sapiens, UniProt Q05397)
T8 construct: purchased Reaction Biology Corporation (Kinase HotSpot)
Method in brief: as §1

[9] = target: T9, SIK3 (Homo sapiens, UniProt Q9Y2K2)
T9 construct: purchased Reaction Biology Corporation (Kinase HotSpot)
Method in brief: as §1

[10] = target: T10, STK33 (Homo sapiens, UniProt Q9BYT3)
T10 construct: purchased Reaction Biology Corporation (Kinase HotSpot)
Method in brief: as §1

[11] = target: T11, PDGFRa (Homo sapiens, UniProt P16234)
T11 construct: purchased Reaction Biology Corporation (Kinase HotSpot)
Method in brief: as §1

[12] = target: T12, PKCepsilon (Homo sapiens, UniProt Q02156)
T12 construct: purchased Reaction Biology Corporation (Kinase HotSpot)
Method in brief: as §1

[13] = target: T13, EPHA8 (Homo sapiens, UniProt P29322)
T13 construct: purchased Reaction Biology Corporation (Kinase HotSpot)
Method in brief: as §1

[14] = target: T14, NEK9 (Homo sapiens, UniProt Q8TD19)
T14 construct: purchased Reaction Biology Corporation (Kinase HotSpot)
Method in brief: as §1

[15] = target: T15, ALK1/ACVRL1 (Homo sapiens, UniProt P37023)
T15 construct: purchased Reaction Biology Corporation (Kinase HotSpot)
T15 sequence (P37023 22-503): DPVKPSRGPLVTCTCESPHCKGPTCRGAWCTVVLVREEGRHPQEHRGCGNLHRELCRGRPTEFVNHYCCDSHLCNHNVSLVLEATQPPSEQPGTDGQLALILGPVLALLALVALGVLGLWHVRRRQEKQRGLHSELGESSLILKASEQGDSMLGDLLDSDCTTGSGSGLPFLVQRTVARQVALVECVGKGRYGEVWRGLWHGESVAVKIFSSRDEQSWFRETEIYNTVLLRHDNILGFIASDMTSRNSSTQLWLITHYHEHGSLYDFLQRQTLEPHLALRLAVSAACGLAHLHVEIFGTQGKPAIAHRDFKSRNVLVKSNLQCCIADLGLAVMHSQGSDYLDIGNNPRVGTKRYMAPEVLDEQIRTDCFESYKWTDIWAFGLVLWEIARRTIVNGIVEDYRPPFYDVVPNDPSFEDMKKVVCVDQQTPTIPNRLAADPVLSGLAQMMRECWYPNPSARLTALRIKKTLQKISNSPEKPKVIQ
Method in brief: as §1

[16] = target: T16, PLK1 (Homo sapiens, UniProt P53350)
T16 construct: purchased Reaction Biology Corporation (Kinase HotSpot)
Method in brief: as §1

[17] = target: T17, RIPK3 (Homo sapiens, UniProt Q9Y572)
T17 construct: purchased Reaction Biology Corporation (Kinase HotSpot)
Method in brief: as §1

[18] = target: T18, IGF1R (Homo sapiens, UniProt P08069)
T18 construct: purchased Reaction Biology Corporation (Kinase HotSpot)
T18 sequence (P08069 31-1367): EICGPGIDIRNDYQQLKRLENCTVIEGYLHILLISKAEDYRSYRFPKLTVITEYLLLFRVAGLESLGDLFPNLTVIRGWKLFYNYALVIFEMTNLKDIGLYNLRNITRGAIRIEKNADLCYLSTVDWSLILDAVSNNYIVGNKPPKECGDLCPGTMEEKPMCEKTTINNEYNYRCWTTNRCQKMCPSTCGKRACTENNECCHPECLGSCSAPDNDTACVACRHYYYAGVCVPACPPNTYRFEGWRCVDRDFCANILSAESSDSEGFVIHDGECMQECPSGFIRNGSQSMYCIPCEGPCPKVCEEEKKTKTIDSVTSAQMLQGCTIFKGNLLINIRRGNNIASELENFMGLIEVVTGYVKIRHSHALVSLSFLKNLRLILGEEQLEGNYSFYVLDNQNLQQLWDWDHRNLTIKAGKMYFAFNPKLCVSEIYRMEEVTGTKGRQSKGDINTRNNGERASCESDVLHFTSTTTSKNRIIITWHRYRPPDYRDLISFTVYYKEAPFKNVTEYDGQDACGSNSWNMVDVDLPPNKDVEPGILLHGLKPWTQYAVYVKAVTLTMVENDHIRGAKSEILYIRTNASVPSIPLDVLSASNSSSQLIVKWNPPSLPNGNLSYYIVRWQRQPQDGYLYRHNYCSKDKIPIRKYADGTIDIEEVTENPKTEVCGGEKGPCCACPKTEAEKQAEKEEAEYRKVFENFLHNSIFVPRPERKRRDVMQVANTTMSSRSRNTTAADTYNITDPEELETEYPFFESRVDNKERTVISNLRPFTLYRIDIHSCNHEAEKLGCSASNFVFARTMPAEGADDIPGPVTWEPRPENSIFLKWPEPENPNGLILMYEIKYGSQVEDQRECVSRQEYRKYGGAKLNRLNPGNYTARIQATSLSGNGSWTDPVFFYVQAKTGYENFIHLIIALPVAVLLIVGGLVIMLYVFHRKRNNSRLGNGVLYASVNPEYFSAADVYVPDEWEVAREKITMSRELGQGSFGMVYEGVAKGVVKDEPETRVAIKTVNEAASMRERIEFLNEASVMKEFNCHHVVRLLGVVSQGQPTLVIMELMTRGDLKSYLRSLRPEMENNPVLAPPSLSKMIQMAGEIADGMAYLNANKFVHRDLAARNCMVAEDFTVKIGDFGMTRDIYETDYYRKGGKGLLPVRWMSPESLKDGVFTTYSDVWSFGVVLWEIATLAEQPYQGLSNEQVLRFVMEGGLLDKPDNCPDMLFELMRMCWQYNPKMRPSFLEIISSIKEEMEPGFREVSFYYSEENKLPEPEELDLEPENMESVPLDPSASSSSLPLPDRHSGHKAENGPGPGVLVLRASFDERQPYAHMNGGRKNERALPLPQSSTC
Method in brief: as §1

[19] = target: T19, EPHA5 (Homo sapiens, UniProt P54756)
T19 construct: purchased Reaction Biology Corporation (Kinase HotSpot)
Method in brief: as §1

[20] = target: T20, Aurora C (Homo sapiens, UniProt Q9UQB9)
T20 construct: purchased Reaction Biology Corporation (Kinase HotSpot)
Method in brief: as §1

[21] = target: T21, P38d/MAPK13 (Homo sapiens, UniProt O15264)
T21 construct: purchased Reaction Biology Corporation (Kinase HotSpot)
Method in brief: as §1

[22] = target: T22, PKCeta (Homo sapiens, UniProt P24723)
T22 construct: purchased Reaction Biology Corporation (Kinase HotSpot)
T22 sequence (P24723 whole entry): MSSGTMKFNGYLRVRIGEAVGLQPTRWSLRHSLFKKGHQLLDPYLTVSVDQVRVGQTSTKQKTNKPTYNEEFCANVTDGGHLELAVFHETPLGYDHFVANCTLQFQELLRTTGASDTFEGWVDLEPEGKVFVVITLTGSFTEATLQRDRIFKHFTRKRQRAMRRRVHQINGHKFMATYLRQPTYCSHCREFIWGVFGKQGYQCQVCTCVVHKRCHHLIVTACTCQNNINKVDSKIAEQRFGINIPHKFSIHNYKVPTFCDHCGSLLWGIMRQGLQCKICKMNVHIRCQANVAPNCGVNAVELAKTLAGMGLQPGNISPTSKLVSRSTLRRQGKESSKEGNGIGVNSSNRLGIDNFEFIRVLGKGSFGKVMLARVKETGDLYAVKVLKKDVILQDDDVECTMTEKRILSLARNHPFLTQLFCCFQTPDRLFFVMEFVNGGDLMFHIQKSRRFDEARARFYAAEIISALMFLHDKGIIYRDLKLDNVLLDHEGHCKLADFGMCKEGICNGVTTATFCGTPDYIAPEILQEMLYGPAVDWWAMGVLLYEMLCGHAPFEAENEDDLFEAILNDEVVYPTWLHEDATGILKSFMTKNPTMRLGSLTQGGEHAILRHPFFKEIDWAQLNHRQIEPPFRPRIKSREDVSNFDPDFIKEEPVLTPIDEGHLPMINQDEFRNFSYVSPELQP
Method in brief: as §1

[23] = target: T23, p70S6Kb/RPS6KB2 (Homo sapiens, UniProt Q9UBS0)
T23 construct: purchased Reaction Biology Corporation (Kinase HotSpot)
T23 sequence (Q9UBS0 whole entry): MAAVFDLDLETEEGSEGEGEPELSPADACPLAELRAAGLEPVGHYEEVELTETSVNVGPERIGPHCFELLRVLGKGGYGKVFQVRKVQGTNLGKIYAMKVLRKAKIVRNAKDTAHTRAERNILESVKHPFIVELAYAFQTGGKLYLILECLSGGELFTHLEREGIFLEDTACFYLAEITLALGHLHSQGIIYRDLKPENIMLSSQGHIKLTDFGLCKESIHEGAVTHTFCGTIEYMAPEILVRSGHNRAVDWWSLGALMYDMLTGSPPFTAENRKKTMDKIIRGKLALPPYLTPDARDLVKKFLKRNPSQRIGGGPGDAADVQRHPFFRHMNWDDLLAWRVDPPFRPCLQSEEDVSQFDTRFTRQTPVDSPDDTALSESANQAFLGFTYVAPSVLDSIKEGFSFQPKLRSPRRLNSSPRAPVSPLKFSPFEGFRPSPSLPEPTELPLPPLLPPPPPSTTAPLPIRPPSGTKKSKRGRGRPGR
Method in brief: as §1

[24] = target: T24, NEK4 (Homo sapiens, UniProt P51957)
T24 construct: purchased Reaction Biology Corporation (Kinase HotSpot)
Method in brief: as §1

[25] = target: T25, CDK2/cyclin E (Homo sapiens, UniProt P24941)
T25 construct: purchased Reaction Biology Corporation (Kinase HotSpot)
Method in brief: as §1

[26] = target: T26, MAK (Homo sapiens, UniProt P20794)
T26 construct: purchased Reaction Biology Corporation (Kinase HotSpot)
Method in brief: as §1

[27] = target: T27, PKCd (Homo sapiens, UniProt Q05655)
T27 construct: purchased Reaction Biology Corporation (Kinase HotSpot)
T27 sequence (Q05655 whole entry): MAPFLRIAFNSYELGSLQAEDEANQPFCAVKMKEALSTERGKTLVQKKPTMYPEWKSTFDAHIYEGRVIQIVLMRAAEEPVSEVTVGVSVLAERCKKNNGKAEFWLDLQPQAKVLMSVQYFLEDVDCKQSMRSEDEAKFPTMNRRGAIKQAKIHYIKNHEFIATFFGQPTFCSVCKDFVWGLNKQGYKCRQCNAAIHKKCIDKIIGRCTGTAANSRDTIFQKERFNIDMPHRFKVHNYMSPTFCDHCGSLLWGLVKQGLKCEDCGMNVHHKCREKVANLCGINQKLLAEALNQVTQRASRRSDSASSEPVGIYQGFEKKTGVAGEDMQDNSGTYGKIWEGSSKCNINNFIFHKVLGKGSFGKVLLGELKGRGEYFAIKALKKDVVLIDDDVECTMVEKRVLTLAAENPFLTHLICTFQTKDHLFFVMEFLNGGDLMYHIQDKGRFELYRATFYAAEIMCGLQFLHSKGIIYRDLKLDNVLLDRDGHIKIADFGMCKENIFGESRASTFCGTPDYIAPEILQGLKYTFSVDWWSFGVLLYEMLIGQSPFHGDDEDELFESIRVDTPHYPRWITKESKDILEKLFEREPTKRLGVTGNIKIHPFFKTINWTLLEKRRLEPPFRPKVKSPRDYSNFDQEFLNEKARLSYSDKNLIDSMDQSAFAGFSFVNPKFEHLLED
Method in brief: as §1

[28] = target: T28, MLK4 (Homo sapiens, UniProt Q5TCX8)
T28 construct: purchased Reaction Biology Corporation (Kinase HotSpot)
Method in brief: as §1

[29] = target: T29, HIPK4 (Homo sapiens, UniProt Q8NE63)
T29 construct: purchased Reaction Biology Corporation (Kinase HotSpot)
Method in brief: as §1

[30] = target: T30, CLK1 (Homo sapiens, UniProt P49759)
T30 construct: purchased Reaction Biology Corporation (Kinase HotSpot)
T30 sequence (P49759 whole entry): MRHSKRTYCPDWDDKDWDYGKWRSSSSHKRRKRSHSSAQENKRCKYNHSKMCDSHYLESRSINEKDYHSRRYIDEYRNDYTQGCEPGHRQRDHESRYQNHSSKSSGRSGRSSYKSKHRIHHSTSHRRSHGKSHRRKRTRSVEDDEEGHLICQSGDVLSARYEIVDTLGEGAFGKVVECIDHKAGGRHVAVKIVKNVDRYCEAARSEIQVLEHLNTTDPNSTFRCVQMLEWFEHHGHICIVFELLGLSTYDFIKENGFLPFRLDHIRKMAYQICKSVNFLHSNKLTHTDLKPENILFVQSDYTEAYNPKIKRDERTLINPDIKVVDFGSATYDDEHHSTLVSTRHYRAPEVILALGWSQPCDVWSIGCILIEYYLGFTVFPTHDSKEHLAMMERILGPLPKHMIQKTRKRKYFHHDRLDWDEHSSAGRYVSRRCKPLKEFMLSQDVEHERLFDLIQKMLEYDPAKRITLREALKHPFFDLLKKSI
Method in brief: as §1

**Q.** For `Cc1cnc(N[C@H]2CC[C@H](N)CC2)nc1-c1cnc2ccc(-c3ccccc3)cn12` [CDDD11-8], which remaining activity at 1 µM [1] is on record?
**A.** 57.4%

**Q.** What about the remaining activity at 1 µM [2] of the same molecule?
**A.** 102%

**Q.** And the remaining activity at 1 µM [3]?
**A.** 105%

**Q.** What about the remaining activity at 1 µM [4] of the same molecule?
**A.** 41.8%

**Q.** And the remaining activity at 1 µM [5]?
**A.** 87%

**Q.** What about the remaining activity at 1 µM [6] of the same molecule?
**A.** 105%

**Q.** And the remaining activity at 1 µM [7]?
**A.** 83.3%

**Q.** And the remaining activity at 1 µM [8]?
**A.** 63.3%

**Q.** What about the remaining activity at 1 µM [9] of the same molecule?
**A.** 59.9%

**Q.** And the remaining activity at 1 µM [10]?
**A.** 70.3%

**Q.** What about the remaining activity at 1 µM [11] of the same molecule?
**A.** 49.3%

**Q.** What about the remaining activity at 1 µM [12] of the same molecule?
**A.** 54.7%

**Q.** What about the remaining activity at 1 µM [13] of the same molecule?
**A.** 83.5%

**Q.** And the remaining activity at 1 µM [14]?
**A.** 84.7%

**Q.** What about the remaining activity at 1 µM [15] of the same molecule?
**A.** 96.9%

**Q.** And the remaining activity at 1 µM [16]?
**A.** 97.3%

**Q.** What about the remaining activity at 1 µM [17] of the same molecule?
**A.** 97.5%

**Q.** And the remaining activity at 1 µM [18]?
**A.** 79%

**Q.** What about the remaining activity at 1 µM [19] of the same molecule?
**A.** 83.8%

**Q.** And the remaining activity at 1 µM [20]?
**A.** 82.1%

**Q.** And the remaining activity at 1 µM [21]?
**A.** 99%

**Q.** And the remaining activity at 1 µM [22]?
**A.** 47.3%

**Q.** And the remaining activity at 1 µM [23]?
**A.** 98.6%

**Q.** And the remaining activity at 1 µM [24]?
**A.** 78.8%

**Q.** What about the remaining activity at 1 µM [25] of the same molecule?
**A.** 55.6%

**Q.** What about the remaining activity at 1 µM [26] of the same molecule?
**A.** 67.6%

**Q.** And the remaining activity at 1 µM [27]?
**A.** 47.6%

**Q.** And the remaining activity at 1 µM [28]?
**A.** 112%

**Q.** And the remaining activity at 1 µM [29]?
**A.** 52.4%

**Q.** And the remaining activity at 1 µM [30]?
**A.** 28.9%
